Results: patent US9206136B2, “Pyrazolyl-based carboxamides I” (Grünenthal GmbH, priority 2013, dated 2015)

Assays:
[1] = test system: Interleukin-2 (IL-2) production/release in Jurkat T cell line clone E6-1; assay: Jurkat IL-2 Production Assay; assay type: cell-based; conditions: Homo sapiens; Jurkat T cells stimulated with 15 μg/ml PHA for 22 hours; IL-2 in supernatant (AlphaLisa)
Protocol: Jurkat IL-2 Production Assay
The effect of compounds of the invention on Interleukin-2 (IL-2) production/release was tested in the Jurkat T cell line (ECACC) clone E6-1.
Jurkat T cells were cultured in DMEM/F12/Glutamax (Gibco) containing 10% FCS (Gibco), and maintained at 37° C., 5% CO2. Cells were split twice a week [5·10^6 (Mon-Thu) and 1·10^7 (Thu-Mon) cells/50 ml medium in T-175 ZK culture flasks, respectively].
Prior to experiment, cells were seeded on 96 well plates (Cellstar 96 Well; Cat No. 655180, Greiner bio-one) at a density of 5·10^5 cells/well in DMEM/F12/Glutamax (Gibco) containing 10% FCS (Gibco), and incubated for 60 min at 37° C., 5% CO2. Subsequently, compounds were added and cells were allowed to incubate for 30 min at 37° C., 5% CO2. Cells were then stimulated with 15 μg/ml Phyto-hemagglutinin (PHA; Sigma) for 22 hours at 37° C., 5% CO2.
Before sampling of the supernatants, cells were spun down (200*g/5 min/RT). The amount of IL-2 released into the supernatant was quantified with the human IL-2 AlphaLisa kit (Perkin Elmer) according to manufacturer's instructions. Luminescence proximity measurements were carried out in the Synergy H4 reader (BioTek) employing the fluorescence setting of the reader (ex: 680/30 nm; em: 620/40 nm).
Inhibition of IL-Production/Release in/from Jurkat T Cells Cells was Quantified as Follows:
Zero percent inhibition (MAX) was defined as the [IL-2] determined in supernatants derived from cells to which PHA & DMSO-only had been added instead of compound. Hundred percent inhibition (MIN) was defined as the [IL-2] determined in supernatants derived from cells that had been pre-treated with 1 μM CyclosporineA (Sigma) before the addition of 15 μg/ml PHA.
For routine IC50 determinations of compounds, 8 concentrations of a serial dilution (1:3.16) were tested, starting off from 10 μM.

[2] = target: T1, CRAC channel (endogenous SOC in HEK293 cells) (Homo sapiens, UniProt Q96D31); assay: HEK Calcium Influx Assay (FLIPR); assay type: cell-based; conditions: 10 μM compound, thapsigargin store depletion, Ca2+ signal 9.5-10 min post-administration, read-out: % inhib. [@ 10 μM] FLIPR
T1 construct: host or cells: HEK293
T1 sequence (Q96D31 whole entry): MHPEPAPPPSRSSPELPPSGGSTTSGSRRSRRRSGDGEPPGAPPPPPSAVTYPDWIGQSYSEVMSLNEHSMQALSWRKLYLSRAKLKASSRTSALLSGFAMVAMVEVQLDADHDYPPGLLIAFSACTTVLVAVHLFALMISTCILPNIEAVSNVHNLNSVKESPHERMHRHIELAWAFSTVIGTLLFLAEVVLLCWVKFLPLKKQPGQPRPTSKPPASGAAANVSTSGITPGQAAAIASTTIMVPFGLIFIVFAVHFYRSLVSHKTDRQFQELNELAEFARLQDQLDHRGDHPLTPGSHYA
Protocol: Compounds of the invention have been tested for their effects on CRAC channels according to the following or similar procedures.
The effect of compounds of the invention on intracellular [Ca^2+] was tested in the HEK293 cell line (ECACC).
HEK293 cells were cultured in DMEM/F12/Glutamax (Gibco) containing 10% FCS (Gibco), and maintained at 37° C., 5% CO2. Cell were split twice a week [3·10^6 (Mon-Thu) and 1·10^6 (Thu-Mon) cells/50 ml medium in T-175 ZK culture flasks, respectively]. 24 hours pre-experiment, cells were seeded on 96 well plates (Poly-D-Lysine 96well Black/Clear Plate, BD Biocoat REF 356640) at a density of 40,000 cells/well in DMEM/F12 (Gibco) containing 10% FCS (Gibco), and maintained at 37° C., 5% CO2.
Prior to store-depletion, cell culture medium was removed and cells were loaded with the a Ca^2+-sensitive fluorescent dye comprised within the Calcium-4-assay kit (Molecular Devices) in nominally Ca^2+-free HBS buffer (140 mM NaCl, 4 mM KCl, 0.2 mM MgCl2, 11 mM D-glucose, and 10 mM HEPES, pH 7.4) according to manufacturer's instruction for 60 min at 37° C., 5% CO2.
Passive depletion of intracellular Ca^2+-stores was then triggered by employing the SERCA inhibitor thapsigargin (2 μM final) for 10 min in the dark (rt). To prevent immediate Ca^2+-entry via the activated Store-operated channels (SOCs), cells were maintained in Ca^2+-free HBS buffer comprising 100 μM EGTA during store-depletion.
Intracellular changes in [Ca^2+] were subsequently monitored with the FLIPR device (Molecular Devices). In brief, baseline imaging post-store depletion was allowed for 1 min before adjusting the extracellular buffer to 3 mM CaCl2. Increases in intracellular [Ca^2+] due to pre-activated SOC channels were monitored for 15 min until intracellular Ca^2+ levels had declined into a steady-state. Finally, compounds were administered and Ca^2+ signals were recorded for additional 10 min.
Inhibition of endogenous SOC in HEK293 cells was quantified employing the average Ca^2+ signal measured from 9.5-10 min post-administration. Zero percent inhibition (MAX) was defined as the Ca^2+ signal recorded from wells to which DMSO-only had been added instead of compound. Hundred percent inhibition (MIN) was defined as the signal obtained from wells in which cells haven't been treated with TG prior to Ca^2+ addition and to which DMSO-only had been added instead of compound. For routine IC50 determinations of compounds, 8 concentrations of a serial dilution (1:3.16) were tested, starting off from 10 μM. Reliable IC50's could consequently be determined only, if they were at least sub 2.5-3 μM.

Structure (SMILES) | IC50 [1] [µM] | inhibition at 10 µM [2] [%]
Cc1ccc(C2CCOCC2)cc1-c1cc(C(=O)Nc2c(F)cccc2F)nn1C [Example 22, N-(2,6-Difluoro-phenyl)-1-methyl-5-(2-methyl-5-tetrahydro-pyran-4-yl-phenyl)-1H-pyrazole-3-carboxylic acid amide] | 1 to 5 | > 70
Cc1ccc(-c2ncn(C)n2)cc1-c1cc(C(=O)Nc2c(F)cccc2F)nn1C [Example 23, N-(2,6-Difluoro-phenyl)-1-methyl-5-[2-methyl-5-(1-methyl-1H-[1,2,4]triazol-3-yl)-phenyl]-1H-pyrazole-3-carboxylic acid amide] | 1 to 5 | < 50
Cc1cc(-c2nccs2)ccc1-c1cc(C(=O)Nc2c(F)cccc2F)nn1C [Example 24, N-(2,6-Difluoro-phenyl)-1-methyl-5-(2-methyl-4-thiazol-2-yl-phenyl)-1H-pyrazole-3-carboxylic acid amide] | 1 to 5 | > 70
Cc1ccc(-c2nccs2)cc1-c1c(C)c(C(=O)Nc2c(F)cccc2F)nn1C [Example 25, N-(2,6-Difluoro-phenyl)-1,4-dimethyl-5-(2-methyl-5-thiazol-2-yl-phenyl)-1H-pyrazole-3-carboxylic acid amide] | 1 to 5 | < 50
Cc1ccc(-c2nccs2)cc1-c1c(C)c(C(=O)Nc2ccncc2F)nn1C [Example 26, N-(3-Fluoro-pyridin-4-yl)-1,4-dimethyl-5-(2-methyl-5-thiazol-2-yl-phenyl)-1H-pyrazole-3-carboxylic acid amide] | 1 to 5 | < 50
Cc1c(C(=O)Nc2c(F)cccc2F)nn(C)c1-c1cccc(-c2nccs2)c1 [Example 27, N-(2,6-Difluoro-phenyl)-1,4-dimethyl-5-(3-thiazol-2-yl-phenyl)-1H-pyrazole-3-carboxylic acid amide] | 0.5 to 1 | > 70
Cc1nnc(-c2ccc(C)c(-c3cc(C(=O)Nc4c(F)cccc4F)nn3C)c2)[nH]1 [Example 28, N-(2,6-Difluoro-phenyl)-1-methyl-5-[2-methyl-5-(5-methyl-4H-[1,2,4]triazol-3-yl)-phenyl]-1H-pyrazole-3-carboxylic acid amide] | 1 to 5 | < 50
Cn1nc(C(=O)Nc2c(F)cccc2F)cc1-c1cc(-c2ncco2)ccc1OC(F)(F)F [Example 30, N-(2,6-Difluoro-phenyl)-1-methyl-5-[5-oxazol-2-yl-2-(trifluoromethyloxy)-phenyl]-1H-pyrazole-3-carboxylic acid amide] | 0.5 to 1 | > 70
Cn1nc(C(=O)Nc2ccncc2F)cc1-c1cc(-c2ncco2)ccc1OC(F)(F)F [Example 31, N-(3-Fluoro-pyridin-4-yl)-1-methyl-5-[5-oxazol-2-yl-2-(trifluoromethyloxy)-phenyl]-1H-pyrazole-3-carboxylic acid amide] | 1 to 5 | 50 to 70
Cc1ccc(-c2nnc[nH]2)cc1-c1cc(C(=O)Nc2c(F)cccc2F)nn1C [Example 32, N-(2,6-Difluoro-phenyl)-1-methyl-5-[2-methyl-5-(4H-[1,2,4]triazol-3-yl)-phenyl]-1H-pyrazole-3-carboxylic acid amide] | 1 to 5 | < 50
Cn1nc(C(=O)Nc2c(F)cncc2F)cc1-c1cc(-c2ncco2)ccc1OC(F)(F)F [Example 33, N-(3,5-Difluoro-pyridin-4-yl)-1-methyl-5-[5-oxazol-2-yl-2-(trifluoro-methyloxy)-phenyl]-1H-pyrazole-3-carboxylic acid amide] | 0.5 to 1 | 50 to 70
COc1ccc(C2CC2)cc1-c1c(C)c(C(=O)Nc2c(F)cccc2F)nn1C [Example 34, 5-(5-Cyclopropyl-2-methoxy-phenyl)-N-(2,6-difluoro-phenyl)-1,4-dimethyl-1H-pyrazole-3-carboxylic acid amide] | 0.5 to 1 | > 70
COc1ccc(C2CC2)cc1-c1c(C)c(C(=O)Nc2c(F)cncc2F)nn1C [Example 35, 5-(5-Cyclopropyl-2-methoxy-phenyl)-N-(3,5-difluoro-pyridin-4-yl)-1,4-dimethyl-1H-pyrazole-3-carboxylic acid amide] | 0.5 to 1 | > 70
Cn1nc(C(=O)Nc2c(F)cccc2F)cc1-c1cc(C2CC2)ccc1OC(F)(F)F [Example 36, 5-[5-Cyclopropyl-2-(trifluoromethyloxy)-phenyl]-N-(2,6-difluoro-phenyl)-1-methyl-1H-pyrazole-3-carboxylic acid amide] | < 0.5 | > 70
Cn1nc(C(=O)Nc2c(F)cncc2F)cc1-c1cc(C2CC2)ccc1OC(F)(F)F [Example 37, 5-[5-Cyclopropyl-2-(trifluoromethyloxy)-phenyl]-N-(3,5-difluoro-pyridin-4-yl)-1-methyl-1H-pyrazole-3-carboxylic acid amide] | < 0.5 | > 70
Cn1nc(C(=O)Nc2ccncc2F)cc1-c1cc(C2CC2)ccc1OC(F)(F)F [Example 38, 5-[5-Cyclopropyl-2-(trifluoromethyloxy)-phenyl]-N-(3-fluoro-pyridin-4-yl)-1-methyl-1H-pyrazole-3-carboxylic acid amide] | 1 to 5 | > 70
Cn1nc(C(=O)Nc2c(F)cccc2F)cc1-c1ccc(C2CC2)cc1OC(F)(F)F [Example 39, 5-[4-Cyclopropyl-2-(trifluoromethyloxy)-phenyl]-N-(2,6-difluoro-phenyl)-1-methyl-1H-pyrazole-3-carboxylic acid amide] | < 0.5 | > 70
Cn1nc(C(=O)Nc2c(F)cncc2F)cc1-c1ccc(C2CC2)cc1OC(F)(F)F [Example 40, 5-[4-Cyclopropyl-2-(trifluoromethyloxy)-phenyl]-N-(3,5-difluoro-pyridin-4-yl)-1-methyl-1H-pyrazole-3-carboxylic acid amide] | < 0.5 | > 70
Cn1nc(C(=O)Nc2ccncc2F)cc1-c1ccc(C2CC2)cc1OC(F)(F)F [Example 41, 5-[4-Cyclopropyl-2-(trifluoromethyloxy)-phenyl]-N-(3-fluoro-pyridin-4-yl)-1-methyl-1H-pyrazole-3-carboxylic acid amide] | 1 to 5 | > 70
Cc1ccc(-c2ncco2)cc1-c1c(N)c(C(=O)Nc2c(F)cncc2F)nn1C [Example 43, 4-Amino-N-(3,5-difluoro-pyridin-4-yl)-1-methyl-5-(2-methyl-5-oxazol-2-yl-phenyl)-1H-pyrazole-3-carboxylic acid amide] | 1 to 5 | < 50
